Patent US10472358B2, “1H-pyrrolo[2,3-c]pyridin-7(6H)-ones and pyrazolo[3,4-c]pyridin-7(6H)-ones as inhibitors of BET proteins” (Incyte Corporation, priority 2014, dated 2019)

Tested on: KMS.12.BM cells
Assay: KMS.12.BM cell viability assay (Cell Titer-GLO, ATP quantitation)
Assay type: cell-based
Conditions: KMS-12-BM, 72 h; human myeloma cells, 3 days, concentration required for 50% cell death
Outline: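 KMS.12.BM human myeloma cells (5000/well, RPMI with 10% FBS) were exposed to a compound concentration range for 3 days. Viable cells were measured by CellTiter-Glo ATP luminescence. IC50 is the concentration giving 50% cell death relative to untreated cells.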

CC(C)C1Oc2c(cc(S(C)(=O)=O)cc2-c2cn(C)c(=O)c3[nH]ncc23)NC1=O (stereo not shown) [Example 84, 2-isopropyl-8-(6-methyl-7-oxo-6,7-dihydro-1H-pyrazolo[3,4-c]pyridin-4-yl)-6-(methylsulfonyl)-2H-1,4-benzoxazin-3(4H)-one]
IC50: ≤ 1 µM
